From paper PMC10515483, “Structure–Reactivity Studies of 2-Sulfonylpyrimidines Allow Selective Protein Arylation” (Bioconjugate Chemistry, 2023) come the findings set out here.

In general, solubility refers to the dissolved amount per volume that the medium holds. The ΔTm is the shift of the melting midpoint relative to a reference.

In brackets after ≈: the same amount, converted by molar mass.

Series [1] in a line: GSH arylation rate constants (NMR; UV-vis for fast warheads). Format: physicochemical. The settings on record: for k change (vs ref): ratio to rate constant of 4q, acceleration (+) or deceleration (-); for k/kref / ΔΔG≠1exp: relative to 4q; for ΔΔG≠1exp: via -RTln(k/kref); for k: Table S8, rate constants obtained at pH = 7. The method in brief:
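Second-order rate constants k for GSH arylation derived from pseudo-first-order k′ (warhead:GSH 1:10), by normalized NMR integration of the disappearing warhead signal over 6 h; TMSP internal standard. KPi buffer with 5% d6-DMSO, pH 7.0 and 6.5, 20 °C; UV–vis used for fast warheads. Mean of ≥2 independent runs.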

Series [2] in a line: Solubility in KPi buffer by NMR with TMSP internal standard. The settings on record: 50 mM KPi aqueous buffer, pH 7, aqueous with cosolvent or surfactant or cyclodextrin, kinetic from dmso stock.
The target of series [3] is T1, β-catenin ARD (Homo sapiens, UniProt P35222).
T1 construct: vector pLipK-ARD (residues 150 – 662) was used; 6xHis-Lip (6xHis, lipoyl domain); made in house; host or cells: E. coli BL21(DE3) pRARE2
T1 sequence (P35222 150-662): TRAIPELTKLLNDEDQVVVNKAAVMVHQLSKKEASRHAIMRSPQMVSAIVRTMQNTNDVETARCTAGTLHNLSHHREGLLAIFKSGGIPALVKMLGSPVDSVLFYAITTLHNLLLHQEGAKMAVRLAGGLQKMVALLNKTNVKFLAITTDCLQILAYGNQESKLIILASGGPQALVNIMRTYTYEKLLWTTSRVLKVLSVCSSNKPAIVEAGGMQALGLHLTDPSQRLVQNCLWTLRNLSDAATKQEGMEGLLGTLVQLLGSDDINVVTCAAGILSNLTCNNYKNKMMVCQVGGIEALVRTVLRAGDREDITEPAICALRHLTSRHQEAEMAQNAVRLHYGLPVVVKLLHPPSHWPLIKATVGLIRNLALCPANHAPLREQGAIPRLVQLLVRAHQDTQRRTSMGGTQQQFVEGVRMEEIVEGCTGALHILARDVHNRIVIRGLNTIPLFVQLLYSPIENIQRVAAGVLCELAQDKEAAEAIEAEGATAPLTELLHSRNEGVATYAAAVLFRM
Nature of the series: Differential scanning fluorimetry (DSF). Format: binding. The settings on record: 100 μM compound; 8 µM β-cat; read-out: Protein thermal stability ΔTm. From the text: We also probed the general effect of 2-SPs on protein stability by using differential scanning fluorimetry (DSF). […] Mutants of the 25 kDa DNA-binding domain of the tumor suppressor p53 are notorious for their reduced thermal stability and denaturation/aggregation propensity.[37] The 56 kDa armadillo domain (ARD) of β-catenin mediates canonical Wnt signaling and plays a central role in embryogenesis and tissue homeostasis.[38] FGE (37 kDa) is the only known activator of human sulfatases, and its stability is susceptible to modification of its cysteines.[39] […]
Human β-catenin armadillo domain. β-catenin sequence was amplified by PCR (KOD DNA polymerase, Merck Millipore) from plasmid templates and cloned into bacterial expression vectors by restriction - free cloning. All plasmids were verified by sequencing. For protein pro duction, bacterial expression vector pLipK-ARD (residues 150 – 662) was used. 6xHis-Lip-tagged recombinant proteins were purified from BL21(DE3) pRARE2 E. coli bacterial strains. Bacteria were grown in LB media supplemented with appropriate antibiotic to OD600 0.6, then dropped to a lower temperature (16 – 24 °C) and induced at OD600 0.8 by addition of 0.4 mM isopropyl β -D-1-thiogalactopyranoside (IPTG). Proteins were expressed overnight and bacteria were subsequently harvested by centrifugation, cell pelle ts shock-frozen in liquid nitrogen and stored at -80°C until use. Cell pellets were re -suspended in lysis buffer (25 mM Tris -HCl pH 8, 200 mM NaCl, 20 mM imidazole, 10 μg/mL DNAse, EDTA -free protease inhibitor cocktail) and lysed with an Emulsiflex C-3 (Avestin). Lysates were cleared by ultracentrifugation (140,000x rcf, 30 minutes, 4°C) and mixed with Ni-NTA agarose. Beads were washed multiple times with lysis buffer, and 6xHisLip - tagged protein was eluted with lysis buffer supplemented with 500 mM imidazo le. The protein was further purified by SEC on a HiPrep26/60 G200 (GE Healthcare) into the final buffer of 200 mM NaCl, 25 mM Tris pH 7.4, 0.06% NaN3, 1 mM DTT, and protein purity was assessed by SDS -PAGE. Pure protein fractions were concentrated using a 1 0 kDa MWCO Vivaspin 20 concentrator (Sartorius) to 17 – 28 mg/mL, then shock frozen as droplets in liquid nitrogen and stored at -80°C until use. […]

Where [4] appears, read: pH 6.5, by NMR, KPi buffer, 5% DMSO-d6.
Setting [5] is: pH 7.0, by NMR, KPi buffer, 5% DMSO-d6.
Where [6] appears, read: pH 6.5, measured by UV titrations.
The mark [7] stands for this setting: pH 7.0, measured by UV titrations.

As to `CC(C)(C)S(=O)(=O)c1ncccn1` [5a], the “rate constant (k) for the reaction with GSH” value in series [1] (setting [4]) was “Ca. 0.03 mM-1.s-1”; in series [1] (setting [5]), 0.00018 ± 3e-05 M⁻¹ s⁻¹. Besides, in series [1] (pH 7.0), the “k change (vs ref)” value is recorded as -139 fold. This compound also showed a k/kref in series [1] of 0.0072. Moreover, the “ΔΔG≠1exp” value in series [1] amounted to 12 kJ/mol. This compound gave a solubility in series [2] of at least 2000 µM. Besides, in series [3], the thermal shift (ΔTm) at 100 µM was -0.1 ± 0.1 °C.
`Nc1ccc(S(=O)(=O)c2ncccn2)cc1` [5b]: in series [1], the k is 0.0050 M⁻¹ s⁻¹, the k/kref worked out at 0.20 and the “ΔΔG≠1exp” value turned out to be 4.0 kJ/mol. The same compound displayed a rate constant (k) for the reaction with GSH in series [1] (setting [4]) of 0.002 M⁻¹ s⁻¹. In series [1] (setting [5]), the rate constant (k) for the reaction with GSH was 0.005 M⁻¹ s⁻¹. Besides, the “k change (vs ref)” value in series [1] (pH 7.0) is -5 fold. In series [2], this compound registered a solubility of at least 2000 µM. The ΔTm at 100 µM in series [3] is -0.1 ± 0.1 °C.
For `CCCCS(=O)(=O)c1ncccn1` [5c], the rate constant (k) for the reaction with GSH in series [1] (setting [4]) is 0.0028 ± 0.0003 M⁻¹ s⁻¹; in series [1] (setting [5]), 0.01 M⁻¹ s⁻¹. The “k change (vs ref)” value in series [1] (pH 7.0) is recorded as -3 fold. In series [2], the solubility was at least 2000 µM. Moreover, in series [3], the ΔTm at 100 µM is -0.1 ± 0.1 °C.
Take `O=S(=O)(c1ccccc1)c1ncccn1` [5d]: in series [1], the k turned out to be 0.035 M⁻¹ s⁻¹, the k/kref is 1.4 and the “ΔΔG≠1exp” value is -0.83 kJ/mol. The rate constant (k) for the reaction with GSH in series [1] (setting [4]) worked out at 0.01 ± 0.005 M⁻¹ s⁻¹. The rate constant (k) for the reaction with GSH in series [1] (setting [5]) is 0.035 ± 0.015 M⁻¹ s⁻¹. Moreover, the “k change (vs ref)” value in series [1] (pH 7.0) was “≈”. This compound showed a solubility in series [2] of at least 2000 µM. Moreover, the ΔTm at 100 µM in series [3] is -0.1 ± 0.1 °C.
For the compound `O=S(=O)(CC(F)(F)F)c1ncccn1` [5e], in series [1], the k worked out at 0.23 M⁻¹ s⁻¹, the k/kref is 9.2 and the “ΔΔG≠1exp” value is listed as -5.4 kJ/mol. Also, the rate constant (k) for the reaction with GSH in series [1] (setting [4]) amounted to 0.04 ± 0.005 M⁻¹ s⁻¹. In series [1] (setting [5]), the rate constant (k) for the reaction with GSH was 0.23 ± 0.05 M⁻¹ s⁻¹. Besides, the “k change (vs ref)” value in series [1] (pH 7.0) is given as “+9 fold”. Further, in series [2], the solubility is at least 2000 µM. The thermal shift (ΔTm) at 100 µM in series [3] is -6.9 ± 1 °C.
`O=[N+]([O-])c1ccc(S(=O)(=O)c2ncccn2)cc1` [5f]: in series [1], the k was determined as 0.29 M⁻¹ s⁻¹, the k/kref is 12 and the “ΔΔG≠1exp” value is recorded as -6.1 kJ/mol. In series [1] (setting [6]), the rate constant (k) for the reaction with GSH was determined as 0.2 ± 0.09 M⁻¹ s⁻¹. Besides, the rate constant (k) for the reaction with GSH in series [1] (setting [7]) was determined as 0.29 ± 0.17 M⁻¹ s⁻¹. Moreover, the “k change (vs ref)” value in series [1] (pH 7.0) is on record as “+12 fold”. This compound also returned a solubility in series [2] of 100 µM (≈ 26.5 µg/mL). Further, in series [3], the ΔTm at 100 µM is -0.1 ± 0.1 °C.
Regarding `O=S(=O)(NCc1ccccc1)c1ncccn1` [5g], the rate constant (k) for the reaction with GSH in series [1] (setting [4]) came to 0.00015 ± 5e-05 M⁻¹ s⁻¹; in series [1] (setting [5]) it was 0.0004 ± 0.0001 M⁻¹ s⁻¹. For the same compound, in series [1] (pH 7.0), the “k change (vs ref)” value is listed as -63 fold. Also, the solubility in series [2] is at least 2000 µM. Further, in series [3], the ΔTm at 100 µM turned out to be 0.3 ± 0.3 °C.
As for `O=S(=O)(Oc1c(F)c(F)c(F)c(F)c1F)c1ncccn1` [5h], in series [1], the k came to 24 M⁻¹ s⁻¹, the k/kref stood at 960 and the “ΔΔG≠1exp” value is reported as -17 kJ/mol. This compound registered a rate constant (k) for the reaction with GSH in series [1] (setting [6]) of 5.4 ± 0.72 M⁻¹ s⁻¹. For the same compound, the rate constant (k) for the reaction with GSH in series [1] (setting [7]) was 24 ± 1.1 M⁻¹ s⁻¹. Also, the “k change (vs ref)” value in series [1] (pH 7.0) was “+960 fold”. In series [2], this compound had a solubility of 100 µM (≈ 32.6 µg/mL). Besides, the ΔTm at 100 µM in series [3] is -0.1 ± 0.1 °C.
